We go through 27 compounds from ChEMBL document CHEMBL4765372, “Design, synthesis and anti-inflammatory activity of 3-amino acid derivatives of ocotillol-type sapogenins” (Eur J Med Chem, 2020).

Active and inactive are the calls of the source. The rule behind the calls is not given here.

Data set [1] relates to RAW264.7. Nature of the data set: Cytotoxicity against mouse RAW264.7 assessed as reduction in cell viability at 20 uM measured after 24 hrs by MTT assay relative to control. It is filed as cell-based. The note with it: raw264.7, 24 h. (Tetrazolium assays rely on reduction of a dye to a coloured formazan, in cell work by metabolically active cells.)
Data set [2] concerns RAW264.7. Nature of the data set: Antiinflammatory activity in mouse RAW264.7 cells assessed as inhibition of LPS-induced NO production at 20 uM after 24 hrs by Griess method. It counts as functional, cell-based.
In data set [3] the test system is RAW264.7. Briefly: Inhibition of LPS-induced TNFalpha protein expression in mouse RAW264.7 cells upto 30 uM measured after 6 hrs by ELISA. It counts as functional, cell-based. The conditions noted are these: dose microM <=30, time 6.0 hrs. (ELISA stands for enzyme-linked immunosorbent assay.)
Data set [4] has as its system RAW264.7. Briefly: Inhibition of LPS-induced p38 phosphorylation in mouse RAW264.7 cell upto 30 uM measured after 2 hr by Western blot analysis. The note with it: dose microM <=30, time 2.0 hrs.
For data set [5], the system named is RAW264.7. Nature of the data set: Inhibition of LPS-induced JNK phosphorylation in mouse RAW264.7 cell upto 30 uM measured after 2 hr by Western blot analysis. The conditions noted are these: dose microM <=30, time 2.0 hrs.
The test system of data set [6] is RAW264.7. Briefly: Inhibition of LPS-induced NO production in mouse RAW264.7 cells assessed as reduction in COX-2 protein expression measured after 24 hrs by Western blot analysis. The conditions noted are these: dose microM <=30, time 24.0 hrs. It counts as functional, cell-based. A general note: In western blotting, separated proteins are transferred to a membrane and probed.

Data set [7] has as its system RAW264.7. Nature of the data set: Inhibition of LPS-stimulated NFkappaB activation in mouse RAW264.7 cells assessed as reduction in LPS-induced IkappaB phosphorylation at 7.5 to 30 uM after 2 hrs by Western blot analysis. It is filed as cell-based. The conditions noted are these: dose 7.5-30 µM.
Data set [8] addresses Transcription factor p65 (Mus musculus) (UniProt Q04207). Nature of the data set: Inhibition of LPS-induced NFkappaB p65 nucleus translocation in mouse RAW264.7 cells at 30 uM measured after 2 hr by immunofluorescence microscopic analysis. It counts as cell-based.
Data set [9] deals with Mitogen-activated protein kinase 1 and 3 (ERK2 and ERK1) (Mus musculus) (UniProt P63085+Q63844). Briefly: Inhibition of LPS-induced ERK1/2 phosphorylation in mouse RAW264.7 cell upto 30 uM measured after 2 hr by Western blot analysis. The conditions noted are these: dose microM <=30, time 2.0 hrs.
Mitogen-activated protein kinase 1 and 3 (ERK2 and ERK1) (Mus musculus), sequence (P63085 whole entry, looked up): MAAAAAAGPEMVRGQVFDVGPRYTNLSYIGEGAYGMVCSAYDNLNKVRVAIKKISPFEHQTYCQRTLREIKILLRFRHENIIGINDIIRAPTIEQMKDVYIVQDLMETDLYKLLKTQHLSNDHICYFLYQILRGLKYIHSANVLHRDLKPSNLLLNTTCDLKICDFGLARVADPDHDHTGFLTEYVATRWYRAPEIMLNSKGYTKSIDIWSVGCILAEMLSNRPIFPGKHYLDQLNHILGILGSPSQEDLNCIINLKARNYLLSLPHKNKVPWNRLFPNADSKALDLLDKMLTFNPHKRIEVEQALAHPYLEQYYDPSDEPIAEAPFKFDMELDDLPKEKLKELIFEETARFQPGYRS
Mitogen-activated protein kinase 1 and 3 (ERK2 and ERK1) (Mus musculus), sequence (Q63844 whole entry, looked up): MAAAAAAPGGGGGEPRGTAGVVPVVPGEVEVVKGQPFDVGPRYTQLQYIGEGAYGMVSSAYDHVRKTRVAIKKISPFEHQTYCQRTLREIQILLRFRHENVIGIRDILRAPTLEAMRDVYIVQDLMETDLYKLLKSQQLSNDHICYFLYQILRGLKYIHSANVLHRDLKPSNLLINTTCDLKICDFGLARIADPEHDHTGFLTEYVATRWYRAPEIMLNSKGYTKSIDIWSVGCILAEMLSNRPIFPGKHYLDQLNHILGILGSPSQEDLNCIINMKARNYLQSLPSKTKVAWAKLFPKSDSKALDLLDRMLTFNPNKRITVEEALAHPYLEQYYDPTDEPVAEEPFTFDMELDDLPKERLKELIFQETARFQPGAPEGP
Data set [10] concerns RAW264.7. Nature of the data set: Inhibition of LPS-induced IL-6 protein expression in mouse RAW264.7 cells upto 30 uM measured after 6 hrs by ELISA. The note with it: dose microM <=30, time 6.0 hrs. It counts as functional, cell-based.
In data set [11] the test system is RAW264.7. Nature of the data set: Inhibition of LPS-induced NO production in mouse RAW264.7 cells assessed as reduction in iNOS protein expression measured after 24 hrs by Western blot analysis. It is filed as functional, cell-based. The note with it: dose microM <=30, time 24.0 hrs.

Transcription factor p65 (Mus musculus), sequence (Q04207 whole entry): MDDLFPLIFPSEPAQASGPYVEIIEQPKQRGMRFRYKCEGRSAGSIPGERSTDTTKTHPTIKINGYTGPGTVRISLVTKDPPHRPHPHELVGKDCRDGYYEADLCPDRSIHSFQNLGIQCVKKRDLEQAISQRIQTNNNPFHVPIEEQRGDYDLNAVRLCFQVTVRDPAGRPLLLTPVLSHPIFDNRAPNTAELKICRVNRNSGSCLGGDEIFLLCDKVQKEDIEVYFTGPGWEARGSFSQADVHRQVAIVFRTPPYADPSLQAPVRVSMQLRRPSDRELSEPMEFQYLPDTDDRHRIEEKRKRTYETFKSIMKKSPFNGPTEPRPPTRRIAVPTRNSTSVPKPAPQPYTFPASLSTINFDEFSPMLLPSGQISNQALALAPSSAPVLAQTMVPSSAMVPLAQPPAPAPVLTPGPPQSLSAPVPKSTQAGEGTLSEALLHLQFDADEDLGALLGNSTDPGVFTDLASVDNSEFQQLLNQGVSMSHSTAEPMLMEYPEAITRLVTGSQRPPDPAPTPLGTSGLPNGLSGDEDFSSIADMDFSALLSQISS

For the compound `CC(C)(C)OC(=O)NCC(=O)O[C@H]1CC[C@]2(C)[C@H]3C[C@@H](O)[C@@H]4[C@@H]([C@]5(C)CC[C@@H](C(C)(C)O)O5)CC[C@@]4(C)[C@]3(C)CC[C@H]2C1(C)C`, the Activity entry in [1] is “Non-Toxic”. The outcome in [2] was Active. Turning to `CC(C)(O)[C@H]1CC[C@@](C)([C@H]2CC[C@]3(C)[C@@H]2[C@H](O)C[C@@H]2[C@@]4(C)CC[C@H](OC(=O)[C@@H](N)Cc5ccccc5)C(C)(C)[C@@H]4CC[C@]23C)O1`, the Activity result in data set [1] is on record as “Non-Toxic”. Consider `CC(C)(O)[C@H]1CC[C@@](C)([C@H]2CC[C@]3(C)[C@@H]2[C@H](O)C[C@@H]2[C@@]4(C)CC[C@H](OC(=O)CN)C(C)(C)[C@@H]4CC[C@]23C)O1`, for which the Activity entry in data set [1] is reported as “Non-Toxic”. Further, in [2], the outcome was Active. As for `CC(C)(O)[C@@H]1CC[C@@](C)([C@H]2CC[C@]3(C)[C@@H]2[C@H](O)C[C@@H]2[C@@]4(C)CC[C@H](OC(=O)[C@@H](N)Cc5ccccc5)C(C)(C)[C@@H]4CC[C@]23C)O1`, in [1], the Activity entry was “Non-Toxic”. Same read-out and setting: next, `CC(C)(C)OC(=O)CC[C@H](NC(=O)OC(C)(C)C)C(=O)O[C@H]1CC[C@]2(C)[C@H]3C[C@@H](O)[C@@H]4[C@@H]([C@]5(C)CC[C@H](C(C)(C)O)O5)CC[C@@]4(C)[C@]3(C)CC[C@H]2C1(C)C`: “Non-Toxic”.

As to `CC(C)(C)OC(=O)CC[C@H](NC(=O)OC(C)(C)C)C(=O)O[C@H]1CC[C@]2(C)[C@H]3C[C@@H](O)[C@@H]4[C@@H]([C@]5(C)CC[C@@H](C(C)(C)O)O5)CC[C@@]4(C)[C@]3(C)CC[C@H]2C1(C)C`, the Activity entry in data set [1] is given as “Non-Toxic”. On the same count and under the same terms, then `CC(C)(C)OC(=O)N[C@@H](Cc1ccccc1)C(=O)O[C@H]1CC[C@]2(C)[C@H]3C[C@@H](O)[C@@H]4[C@@H]([C@]5(C)CC[C@@H](C(C)(C)O)O5)CC[C@@]4(C)[C@]3(C)CC[C@H]2C1(C)C`, with “Non-Toxic”. `CC(C)(C)OC(=O)NCCCC[C@H](NC(=O)OC(C)(C)C)C(=O)O[C@H]1CC[C@]2(C)[C@H]3C[C@@H](O)[C@@H]4[C@@H]([C@]5(C)CC[C@H](C(C)(C)O)O5)CC[C@@]4(C)[C@]3(C)CC[C@H]2C1(C)C`: the Activity entry in data set [1] is “Non-Toxic”. For the same compound, the result in [2] was Active. The matching figures for `CC(C)(O)[C@@H]1CC[C@@](C)([C@H]2CC[C@]3(C)[C@@H]2[C@H](O)C[C@@H]2[C@@]4(C)CC[C@H](O)C(C)(C)[C@@H]4CC[C@]23C)O1`: “Non-Toxic” and “Active”. The matching figures for `CC(C)(O)[C@H]1CC[C@@](C)([C@H]2CC[C@]3(C)[C@@H]2[C@H](O)C[C@@H]2[C@@]4(C)CC[C@H](OC(=O)[C@@H](N)CCC(=O)O)C(C)(C)[C@@H]4CC[C@]23C)O1`: “Non-Toxic” and “Active”. The like results for `CC(C)(C)OC(=O)NCC(=O)O[C@H]1CC[C@]2(C)[C@H]3C[C@@H](O)[C@@H]4[C@@H]([C@]5(C)CC[C@H](C(C)(C)O)O5)CC[C@@]4(C)[C@]3(C)CC[C@H]2C1(C)C` were, in that order, “Non-Toxic” and “Active”. Turning to `CC(C)(C)OC(=O)NCC(=O)NCC(=O)NCC(=O)O[C@H]1CC[C@]2(C)[C@H]3C[C@@H](O)[C@@H]4[C@@H]([C@]5(C)CC[C@H](C(C)(C)O)O5)CC[C@@]4(C)[C@]3(C)CC[C@H]2C1(C)C`, the Activity result in [1] is “Non-Toxic”. The outcome in data set [2] was inactive. Consider `CC(C)(C)OC(=O)NCC(=O)NCC(=O)O[C@H]1CC[C@]2(C)[C@H]3C[C@@H](O)[C@@H]4[C@@H]([C@]5(C)CC[C@H](C(C)(C)O)O5)CC[C@@]4(C)[C@]3(C)CC[C@H]2C1(C)C`, for which, in [1], the Activity entry is on record as “Non-Toxic”. Besides, the inhibition entry in [3], in [4], in [6], in [7], in data set [8] and in [9] was “Dose-dependent effect” each time. Moreover, the inhibition entry in data set [10] and in [11] was “Dose-dependent effect” each time. In data set [5], the inhibition result was “inactive”. In addition, the outcome in data set [2] was Active. As for `CC(C)(C)OC(=O)NCC(=O)NCC(=O)NCC(=O)O[C@H]1CC[C@]2(C)[C@H]3C[C@@H](O)[C@@H]4[C@@H]([C@]5(C)CC[C@@H](C(C)(C)O)O5)CC[C@@]4(C)[C@]3(C)CC[C@H]2C1(C)C`, in data set [1], the Activity entry is recorded as “Non-Toxic”. With `CC(C)(C)OC(=O)NCCCC[C@H](NC(=O)OC(C)(C)C)C(=O)O[C@H]1CC[C@]2(C)[C@H]3C[C@@H](O)[C@@H]4[C@@H]([C@]5(C)CC[C@@H](C(C)(C)O)O5)CC[C@@]4(C)[C@]3(C)CC[C@H]2C1(C)C`, the Activity result in data set [1] was “Non-Toxic”. Further, the result in data set [2] was Active. The like results for `CC(C)(O)[C@@H]1CC[C@@](C)([C@H]2CC[C@]3(C)[C@@H]2[C@H](O)C[C@@H]2[C@@]4(C)CC[C@H](OC(=O)CN)C(C)(C)[C@@H]4CC[C@]23C)O1` were, in that order, “Non-Toxic” and “Active”. The matching figures for `CC(C)(C)OC(=O)NCC(=O)NCC(=O)O[C@H]1CC[C@]2(C)[C@H]3C[C@@H](O)[C@@H]4[C@@H]([C@]5(C)CC[C@@H](C(C)(C)O)O5)CC[C@@]4(C)[C@]3(C)CC[C@H]2C1(C)C`: “Non-Toxic” and “Active”.

Regarding `C[C@]12CCC(=O)C=C1CC[C@@H]1[C@@H]2[C@@H](O)C[C@@]2(C)[C@H]1CC[C@]2(O)C(=O)COC(=O)CCC(=O)[O-].[Na+]` [HYDROCORTISONE SODIUM SUCCINATE], the Activity entry in data set [1] was “Non-Toxic”. For the compound `CC(C)(O)[C@H]1CC[C@@](C)([C@H]2CC[C@]3(C)[C@@H]2[C@H](O)C[C@@H]2[C@@]4(C)CC[C@H](OC(=O)CNC(=O)CN)C(C)(C)[C@@H]4CC[C@]23C)O1`, in [1], the Activity entry was “Non-Toxic”. The result in data set [2] was Active. The matching figures for `CC(C)(O)[C@H]1CC[C@@](C)([C@H]2CC[C@]3(C)[C@@H]2[C@H](O)C[C@@H]2[C@@]4(C)CC[C@H](O)C(C)(C)[C@@H]4CC[C@]23C)O1`: “Non-Toxic” and “Active”. For the compound `CC(C)(C)OC(=O)N[C@@H](Cc1ccccc1)C(=O)O[C@H]1CC[C@]2(C)[C@H]3C[C@@H](O)[C@@H]4[C@@H]([C@]5(C)CC[C@H](C(C)(C)O)O5)CC[C@@]4(C)[C@]3(C)CC[C@H]2C1(C)C`, the Activity result in data set [1] is given as “Non-Toxic”.

For the compound `CC(C)(O)[C@@H]1CC[C@@](C)([C@H]2CC[C@]3(C)[C@@H]2[C@H](O)C[C@@H]2[C@@]4(C)CC[C@H](OC(=O)[C@@H](N)CCCCN)C(C)(C)[C@@H]4CC[C@]23C)O1`, in data set [1], the Activity result was “Non-Toxic”. Consider `CC(C)(O)[C@@H]1CC[C@@](C)([C@H]2CC[C@]3(C)[C@@H]2[C@H](O)C[C@@H]2[C@@]4(C)CC[C@H](OC(=O)[C@@H](N)CCC(=O)O)C(C)(C)[C@@H]4CC[C@]23C)O1`, for which, in data set [1], the Activity entry is on record as “Non-Toxic”. For the same compound, the outcome in data set [2] was Active. Consider `CC(C)(O)[C@@H]1CC[C@@](C)([C@H]2CC[C@]3(C)[C@@H]2[C@H](O)C[C@@H]2[C@@]4(C)CC[C@H](OC(=O)CNC(=O)CN)C(C)(C)[C@@H]4CC[C@]23C)O1`, for which the Activity result in data set [1] is listed as “Non-Toxic”. Besides, in data set [2], the result was Active. The like results for `CC(C)(O)[C@H]1CC[C@@](C)([C@H]2CC[C@]3(C)[C@@H]2[C@H](O)C[C@@H]2[C@@]4(C)CC[C@H](OC(=O)CNC(=O)CNC(=O)CN)C(C)(C)[C@@H]4CC[C@]23C)O1` were, in that order, “Non-Toxic” and “Active”. As for `CC(C)(O)[C@H]1CC[C@@](C)([C@H]2CC[C@]3(C)[C@@H]2[C@H](O)C[C@@H]2[C@@]4(C)CC[C@H](OC(=O)[C@@H](N)CCCCN)C(C)(C)[C@@H]4CC[C@]23C)O1`, the Activity result in data set [1] was “Non-Toxic”.

In the case of `CC(C)(O)[C@@H]1CC[C@@](C)([C@H]2CC[C@]3(C)[C@@H]2[C@H](O)C[C@@H]2[C@@]4(C)CC[C@H](OC(=O)CNC(=O)CNC(=O)CN)C(C)(C)[C@@H]4CC[C@]23C)O1`, the Activity result in data set [1] is given as “Non-Toxic”. In addition, the result in data set [2] was Active.
